Tests used:
Somatostatin sst2 = biological target: T1, Somatostatin sst2 (Homo sapiens, UniProt P30874); experiment: Radioligand binding panel (Table S1); conditions: 10 μM T1-11, n 2
T1 construct: purchased MDS Pharma Services Taiwan

[1] = biological target: T2, Epidermal Growth Factor (EGF) (Homo sapiens, UniProt P00533); experiment: Radioligand binding panel (Table S1); conditions: 10 μM T1-11, n 2
T2 construct: purchased MDS Pharma Services Taiwan

A2AR = biological target: T3, A2AR (Rattus norvegicus, UniProt P30543); experiment: cAMP assay in PC12 cells; type: cell-based
T3 construct: Treatment of PC12 cells with T1-11 dose-dependently elevated the cellular cAMP levels; endogenous in cells; host or cells: PC12
T3 sequence (P30543 whole entry): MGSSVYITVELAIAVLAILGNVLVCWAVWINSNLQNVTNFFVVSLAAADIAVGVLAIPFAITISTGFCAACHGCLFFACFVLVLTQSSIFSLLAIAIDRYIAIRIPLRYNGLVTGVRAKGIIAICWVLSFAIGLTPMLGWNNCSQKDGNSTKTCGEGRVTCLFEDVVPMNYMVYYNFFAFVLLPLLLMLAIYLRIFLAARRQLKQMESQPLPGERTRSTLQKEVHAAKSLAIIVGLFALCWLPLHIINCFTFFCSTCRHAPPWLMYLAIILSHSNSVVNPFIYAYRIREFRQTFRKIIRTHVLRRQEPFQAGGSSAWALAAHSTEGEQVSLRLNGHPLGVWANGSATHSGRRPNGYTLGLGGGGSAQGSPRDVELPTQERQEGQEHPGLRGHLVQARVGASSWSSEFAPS
Method: PC12 cells were plated at the density of 5×10^5 cells/well (on 12-well plates) and incubated with the indicated reagent(s) for the desired period of time. Cells were washed twice with ice-cold Locke's solution (150 mM NaCl, 5.6 mM KCl, 5 mM glucose, 1 mM MgCl2, and 10 mM HEPES, adjusted to pH 7.4). Cellular cAMP was extracted by adding 0.3 ml of 0.1 M HCl to each well and incubating this for 10 min on ice.

Melanocortin MC1 = biological target: T4, Melanocortin MC1 (Homo sapiens, UniProt Q01726); experiment: Radioligand binding panel (Table S1); conditions: 10 μM T1-11, n 2
T4 construct: purchased MDS Pharma Services Taiwan

Somatostatin sst4 = biological target: T5, Somatostatin sst4 (Homo sapiens, UniProt P31391); experiment: Radioligand binding panel (Table S1); conditions: 10 μM T1-11, n 2
T5 construct: purchased MDS Pharma Services Taiwan

[2] = system: Inositol Trisphosphate IP3; experiment: Radioligand binding panel (Table S1); design: species or system rat; conditions: 10 μM T1-11, n 2
Dopamine D5 = biological target: T6, Dopamine D5 (Homo sapiens, UniProt P21918); experiment: Radioligand binding panel (Table S1); conditions: 10 μM T1-11, n 2
T6 construct: purchased MDS Pharma Services Taiwan
T6 sequence (P21918 whole entry): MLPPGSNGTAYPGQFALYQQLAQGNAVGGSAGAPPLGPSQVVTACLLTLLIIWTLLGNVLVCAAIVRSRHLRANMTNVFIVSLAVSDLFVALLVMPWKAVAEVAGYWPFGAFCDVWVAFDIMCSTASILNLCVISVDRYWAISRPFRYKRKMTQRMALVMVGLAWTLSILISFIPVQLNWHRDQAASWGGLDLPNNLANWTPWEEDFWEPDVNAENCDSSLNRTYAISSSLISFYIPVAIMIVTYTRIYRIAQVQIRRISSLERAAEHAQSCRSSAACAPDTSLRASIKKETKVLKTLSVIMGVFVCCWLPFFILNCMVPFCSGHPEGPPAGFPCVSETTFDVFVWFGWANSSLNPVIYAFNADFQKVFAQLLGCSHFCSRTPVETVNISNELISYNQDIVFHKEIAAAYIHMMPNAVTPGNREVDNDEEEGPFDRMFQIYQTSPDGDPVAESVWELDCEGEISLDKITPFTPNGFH

[3] = system: Glutamate, NMDA, Phencyclidine; experiment: Radioligand binding panel (Table S1); design: species or system rat; conditions: 10 μM T1-11, n 2
Muscarinic M1 = biological target: T7, Muscarinic M1 (Homo sapiens, UniProt P11229); experiment: Radioligand binding panel (Table S1); conditions: 10 μM T1-11, n 2
T7 construct: purchased MDS Pharma Services Taiwan
T7 sequence (P11229 whole entry): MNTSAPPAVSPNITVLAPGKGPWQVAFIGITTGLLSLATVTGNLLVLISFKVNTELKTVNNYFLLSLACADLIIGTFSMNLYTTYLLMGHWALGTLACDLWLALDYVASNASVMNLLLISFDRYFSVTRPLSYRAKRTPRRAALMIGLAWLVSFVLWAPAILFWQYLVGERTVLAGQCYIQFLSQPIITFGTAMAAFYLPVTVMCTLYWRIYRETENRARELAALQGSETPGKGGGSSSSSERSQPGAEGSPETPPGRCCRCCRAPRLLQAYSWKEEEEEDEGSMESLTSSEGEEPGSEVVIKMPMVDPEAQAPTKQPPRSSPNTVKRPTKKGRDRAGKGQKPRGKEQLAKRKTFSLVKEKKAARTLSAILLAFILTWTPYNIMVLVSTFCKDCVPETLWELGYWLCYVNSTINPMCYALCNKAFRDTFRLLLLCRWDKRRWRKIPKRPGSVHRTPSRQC

Calcitonin = biological target: T8, Calcitonin (Homo sapiens, UniProt P30988); experiment: Radioligand binding panel (Table S1); conditions: 10 μM T1-11, n 2
T8 construct: purchased MDS Pharma Services Taiwan

[4] = system: Calcium Channel L-Type, Benzothiazepine; experiment: Radioligand binding panel (Table S1); design: species or system rat; conditions: 10 μM T1-11, n 2
[5] = biological target: T9, N-Formyl Peptide Receptor-like, FPRL1 (Homo sapiens, UniProt P25090); experiment: Radioligand binding panel (Table S1); conditions: 10 μM T1-11, n 2
T9 construct: purchased MDS Pharma Services Taiwan
T9 sequence (P25090 whole entry): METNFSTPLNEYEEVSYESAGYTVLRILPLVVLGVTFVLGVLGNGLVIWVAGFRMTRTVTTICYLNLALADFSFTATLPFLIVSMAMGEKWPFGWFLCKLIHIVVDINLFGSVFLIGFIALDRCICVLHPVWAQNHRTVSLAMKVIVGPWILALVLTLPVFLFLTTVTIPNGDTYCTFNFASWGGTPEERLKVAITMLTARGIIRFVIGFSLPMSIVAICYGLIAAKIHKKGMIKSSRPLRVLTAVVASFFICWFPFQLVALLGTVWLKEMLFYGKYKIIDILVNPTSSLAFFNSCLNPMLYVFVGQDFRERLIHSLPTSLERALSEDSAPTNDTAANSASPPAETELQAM

Angiotensin AT1 = biological target: T10, Angiotensin AT1 (Homo sapiens, UniProt P30556); experiment: Radioligand binding panel (Table S1); conditions: 10 μM T1-11, n 2
T10 construct: purchased MDS Pharma Services Taiwan
T10 sequence (P30556 whole entry): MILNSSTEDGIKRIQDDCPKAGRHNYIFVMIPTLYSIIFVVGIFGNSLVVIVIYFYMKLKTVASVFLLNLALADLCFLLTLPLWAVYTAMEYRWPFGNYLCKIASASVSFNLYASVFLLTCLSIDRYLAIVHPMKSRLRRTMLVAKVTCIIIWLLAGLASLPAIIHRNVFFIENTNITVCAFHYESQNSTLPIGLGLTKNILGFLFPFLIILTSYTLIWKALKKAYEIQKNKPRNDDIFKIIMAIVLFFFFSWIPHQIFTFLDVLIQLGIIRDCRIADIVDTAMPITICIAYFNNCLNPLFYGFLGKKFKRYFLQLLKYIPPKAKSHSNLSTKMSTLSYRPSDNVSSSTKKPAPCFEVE

Adrenergic β 1 = biological target: T11, Adrenergic β 1 (Homo sapiens, UniProt P08588); experiment: Radioligand binding panel (Table S1); conditions: 10 μM T1-11, n 2
T11 construct: purchased MDS Pharma Services Taiwan

[6] = biological target: T12, Calcitonin Gene-Related, Peptide CGRP1 (Homo sapiens, UniProt O60894+Q16602); experiment: Radioligand binding panel (Table S1); conditions: 10 μM T1-11, n 2
T12 construct: purchased MDS Pharma Services Taiwan

GABAB1B = biological target: T13, GABAB1B (Homo sapiens, UniProt Q9UBS5); experiment: Radioligand binding panel (Table S1); conditions: 10 μM T1-11, n 2
T13 construct: purchased MDS Pharma Services Taiwan

Muscarinic M2 = biological target: T14, Muscarinic M2 (Homo sapiens, UniProt P08172); experiment: Radioligand binding panel (Table S1); conditions: 10 μM T1-11, n 2
T14 construct: purchased MDS Pharma Services Taiwan

[7] = system: Transforming Growth Factor-β (TGF-β); experiment: Radioligand binding panel (Table S1); design: species or system mouse; conditions: 10 μM T1-11, n 2
PC12 cells = experiment: MTT metabolism assay, serum-deprived PC12 cells; type: cell-based, rat; conditions: 24 h
Method: Survival was assessed by the 3-(4,5-dimethylthiazol-2-yl)-2,5-diphenyltetrazolium bromide (MTT) metabolism assay as described elsewhere, [65]. In brief, cells grown on 150-mm plates were washed three times with PBS and resuspended in DMEM. Suspended cells (1×10^4 cells) were plated on 96-well plates and treated with or without the indicated reagent. After incubation for 24 h, MTT (0.5 mg/ml) was added to the medium and incubated for 3 h. After discarding the medium, DMSO (100 µl) was then applied to the well to dissolve the formazan crystals derived from the mitochondrial cleavage of the tetrazolium ring by live cells. The absorbance at 570/630 nm in each well was measured on a micro-enzyme-linked immunosorbent assay reader.

Sigma σ2 = biological target: T15, Sigma σ2 (Rattus norvegicus, UniProt Q5U3Y7); experiment: Radioligand binding panel (Table S1); conditions: 10 μM T1-11, n 2
T15 construct: purchased MDS Pharma Services Taiwan
T15 sequence (Q5U3Y7 whole entry): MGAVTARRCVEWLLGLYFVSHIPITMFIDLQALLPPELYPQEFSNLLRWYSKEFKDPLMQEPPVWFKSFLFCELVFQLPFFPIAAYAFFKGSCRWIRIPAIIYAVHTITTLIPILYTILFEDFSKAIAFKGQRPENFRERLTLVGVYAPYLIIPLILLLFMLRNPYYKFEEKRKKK

Insulin = experiment: Radioligand binding panel (Table S1); design: species or system rat; conditions: 10 μM T1-11, n 2
Ryanodine RyR3 = biological target: T16, Ryanodine RyR3 (Rattus norvegicus, UniProt A0ABK0LPH6); experiment: Radioligand binding panel (Table S1); conditions: 10 μM T1-11, n 2
T16 construct: purchased MDS Pharma Services Taiwan

Dopamine D2S = biological target: T17, Dopamine D2S (Homo sapiens, UniProt P14416); experiment: Radioligand binding panel (Table S1); conditions: 10 μM T1-11, n 2
T17 construct: purchased MDS Pharma Services Taiwan
T17 sequence (P14416 1-414 isoform P14416-2): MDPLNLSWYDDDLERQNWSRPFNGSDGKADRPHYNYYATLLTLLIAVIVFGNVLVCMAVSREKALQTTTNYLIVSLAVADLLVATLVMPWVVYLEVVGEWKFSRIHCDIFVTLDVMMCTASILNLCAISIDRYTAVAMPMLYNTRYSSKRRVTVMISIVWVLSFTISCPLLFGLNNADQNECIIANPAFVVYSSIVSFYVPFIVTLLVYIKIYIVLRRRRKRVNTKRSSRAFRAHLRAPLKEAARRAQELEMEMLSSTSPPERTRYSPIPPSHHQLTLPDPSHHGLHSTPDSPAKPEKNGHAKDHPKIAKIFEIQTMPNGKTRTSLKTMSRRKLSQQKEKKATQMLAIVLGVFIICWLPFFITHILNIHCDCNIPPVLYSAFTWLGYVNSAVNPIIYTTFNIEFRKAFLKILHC

[8] = biological target: T18, Serotonin (5-Hydroxytryptamine) 5-HT7 (Homo sapiens, UniProt P34969); experiment: Radioligand binding panel (Table S1); conditions: 10 μM T1-11, n 2
T18 construct: purchased MDS Pharma Services Taiwan
T18 sequence (P34969 whole entry): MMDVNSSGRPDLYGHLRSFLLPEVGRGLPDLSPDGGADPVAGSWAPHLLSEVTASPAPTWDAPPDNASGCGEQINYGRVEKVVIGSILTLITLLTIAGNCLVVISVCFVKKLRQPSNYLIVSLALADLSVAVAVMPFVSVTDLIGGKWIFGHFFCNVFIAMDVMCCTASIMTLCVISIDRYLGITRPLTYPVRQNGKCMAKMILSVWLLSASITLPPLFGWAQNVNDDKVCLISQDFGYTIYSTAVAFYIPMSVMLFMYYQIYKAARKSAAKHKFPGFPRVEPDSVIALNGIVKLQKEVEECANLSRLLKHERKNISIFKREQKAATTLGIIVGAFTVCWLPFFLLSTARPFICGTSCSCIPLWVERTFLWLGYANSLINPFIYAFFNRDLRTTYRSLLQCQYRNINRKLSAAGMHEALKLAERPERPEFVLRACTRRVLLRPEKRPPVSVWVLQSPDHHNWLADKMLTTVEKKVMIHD

[9] = system: Platelet-Derived Growth Factor (PDGF); experiment: Radioligand binding panel (Table S1); design: species or system mouse; conditions: 10 μM T1-11, n 2
Vasopressin V1A = biological target: T19, Vasopressin V1A (Homo sapiens, UniProt P37288); experiment: Radioligand binding panel (Table S1); conditions: 10 μM T1-11, n 2
T19 construct: purchased MDS Pharma Services Taiwan
T19 sequence (P37288 whole entry): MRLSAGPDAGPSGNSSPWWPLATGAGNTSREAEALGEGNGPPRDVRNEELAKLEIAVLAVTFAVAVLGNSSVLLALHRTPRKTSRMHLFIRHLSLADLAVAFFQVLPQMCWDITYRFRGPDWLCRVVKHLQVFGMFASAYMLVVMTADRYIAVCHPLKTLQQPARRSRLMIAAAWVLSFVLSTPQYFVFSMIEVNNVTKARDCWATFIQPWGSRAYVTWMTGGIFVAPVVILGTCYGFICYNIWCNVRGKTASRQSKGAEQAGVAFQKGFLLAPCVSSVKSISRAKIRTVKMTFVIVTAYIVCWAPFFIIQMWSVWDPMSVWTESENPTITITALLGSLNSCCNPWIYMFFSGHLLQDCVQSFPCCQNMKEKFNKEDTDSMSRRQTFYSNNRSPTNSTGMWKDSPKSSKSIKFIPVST

Galanin GAL1 = biological target: T20, Galanin GAL1 (Homo sapiens, UniProt P47211); experiment: Radioligand binding panel (Table S1); conditions: 10 μM T1-11, n 2
T20 construct: purchased MDS Pharma Services Taiwan
T20 sequence (P47211 whole entry): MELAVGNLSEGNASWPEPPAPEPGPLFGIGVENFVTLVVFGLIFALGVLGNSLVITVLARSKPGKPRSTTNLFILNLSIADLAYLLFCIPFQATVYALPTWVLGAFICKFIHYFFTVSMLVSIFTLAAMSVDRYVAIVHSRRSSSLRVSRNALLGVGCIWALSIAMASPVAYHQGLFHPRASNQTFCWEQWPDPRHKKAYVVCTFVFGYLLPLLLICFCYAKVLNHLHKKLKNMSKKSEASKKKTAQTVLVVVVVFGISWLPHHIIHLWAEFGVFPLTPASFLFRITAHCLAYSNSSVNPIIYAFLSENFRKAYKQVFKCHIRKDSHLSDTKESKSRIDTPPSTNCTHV

[10] = biological target: T21, Serotonin (5-Hydroxytryptamine) 5-HT1A (Homo sapiens, UniProt P08908); experiment: Radioligand binding panel (Table S1); conditions: 10 μM T1-11, n 2
T21 construct: purchased MDS Pharma Services Taiwan
T21 sequence (P08908 whole entry): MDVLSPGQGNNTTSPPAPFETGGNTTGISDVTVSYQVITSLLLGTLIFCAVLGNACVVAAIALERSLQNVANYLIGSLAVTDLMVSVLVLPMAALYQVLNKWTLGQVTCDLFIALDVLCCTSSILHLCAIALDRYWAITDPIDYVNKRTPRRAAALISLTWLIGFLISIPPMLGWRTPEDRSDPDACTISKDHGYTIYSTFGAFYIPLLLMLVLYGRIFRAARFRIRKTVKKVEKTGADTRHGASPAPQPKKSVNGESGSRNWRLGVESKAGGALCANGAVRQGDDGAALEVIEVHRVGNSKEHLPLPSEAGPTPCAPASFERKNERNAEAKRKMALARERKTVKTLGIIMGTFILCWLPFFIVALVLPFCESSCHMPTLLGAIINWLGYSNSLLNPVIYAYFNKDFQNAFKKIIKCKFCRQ

Phosphodiesterase PDE6 = experiment: Radioligand binding panel (Table S1); design: species or system human; conditions: 10 μM T1-11, n 2
Prostanoid EP2 = biological target: T22, Prostanoid EP2 (Homo sapiens, UniProt P43116); experiment: Radioligand binding panel (Table S1); conditions: 10 μM T1-11, n 2
T22 construct: purchased MDS Pharma Services Taiwan
T22 sequence (P43116 whole entry): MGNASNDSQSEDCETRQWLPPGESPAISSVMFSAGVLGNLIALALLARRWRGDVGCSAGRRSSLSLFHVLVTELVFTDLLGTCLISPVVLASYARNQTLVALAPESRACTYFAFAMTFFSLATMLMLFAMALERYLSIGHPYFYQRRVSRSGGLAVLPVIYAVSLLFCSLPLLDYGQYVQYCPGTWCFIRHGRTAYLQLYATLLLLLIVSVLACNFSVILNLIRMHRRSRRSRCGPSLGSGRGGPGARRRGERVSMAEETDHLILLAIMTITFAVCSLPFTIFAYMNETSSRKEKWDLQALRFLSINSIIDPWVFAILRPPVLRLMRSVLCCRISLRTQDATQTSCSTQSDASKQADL

Adrenomedullin AM2 = biological target: T23, Adrenomedullin AM2 (Homo sapiens, UniProt O60896+Q16602); experiment: Radioligand binding panel (Table S1); conditions: 10 μM T1-11, n 2
T23 construct: purchased MDS Pharma Services Taiwan

[11] = system: Vascular Endothelial Growth Factor (VEGF); experiment: Radioligand binding panel (Table S1); design: species or system human; conditions: 10 μM T1-11, n 2
Lipoxygenase 15-LO = biological target: T24, Lipoxygenase 15-LO (Oryctolagus cuniculus, UniProt P12530); experiment: Radioligand binding panel (Table S1); design: species or system rabbit; conditions: 10 μM T1-11, n 2
T24 construct: purchased MDS Pharma Services Taiwan

Glutamate, Kainate = experiment: Radioligand binding panel (Table S1); design: species or system rat; conditions: 10 μM T1-11, n 2
Adrenergic α 2A = biological target: T25, Adrenergic α 2A (Homo sapiens, UniProt P08913); experiment: Radioligand binding panel (Table S1); conditions: 10 μM T1-11, n 2
T25 construct: purchased MDS Pharma Services Taiwan

## OC[C@H]1O[C@@H](n2cnc3c(NCc4ccc(O)cc4)ncnc32)[C@H](O)[C@@H]1O [T1-11, N ^6-(4-hydroxybenzyl)adenine riboside]
Somatostatin sst2
  inhibition at 10 µM: 9%
[1]
  inhibition at 10 µM: -5%
A2AR; A2A adenosine receptor, elevates cellular cAMP levels
  Function: agonist
A2AR; PC12 cells, 20 min at RT, read-out: EC50, elevation of cellular cAMP levels
  EC50: ~2200 nM
Melanocortin MC1
  inhibition at 10 µM: 3%
Somatostatin sst4
  inhibition at 10 µM: 5%
[2]
  % Inhibition: 3%
Dopamine D5
  inhibition at 10 µM: 2%
[3]
  % Inhibition: -2%
Muscarinic M1
  inhibition at 10 µM: -1%
Calcitonin
  inhibition at 10 µM: 15%
[4]
  % Inhibition: -8%
[5]
  inhibition at 10 µM: 5%
Angiotensin AT1
  inhibition at 10 µM: -5%
Adrenergic β 1
  inhibition at 10 µM: 7%
[6]
  inhibition at 10 µM: 6%
GABAB1B
  inhibition at 10 µM: -5%
Muscarinic M2
  inhibition at 10 µM: 4%
[7]
  % Inhibition: -1%
PC12 cells
  Protection against serum withdrawal-induced cell death (MTT): protected against serum withdrawal-induced cell death in a dose-dependent manner
Sigma σ2
  inhibition at 10 µM: -3%
Insulin
  % Inhibition: 4%
Ryanodine RyR3
  inhibition at 10 µM: -1%
Dopamine D2S
  inhibition at 10 µM: 10%
[8]
  inhibition at 10 µM: 2%
[9]
  % Inhibition: -4%
Vasopressin V1A
  inhibition at 10 µM: 0%
Galanin GAL1
  inhibition at 10 µM: 0%
[10]
  inhibition at 10 µM: 9%
Phosphodiesterase PDE6
  % Inhibition: 21%
Prostanoid EP2
  inhibition at 10 µM: 10%
Adrenomedullin AM2
  inhibition at 10 µM: 9%
[11]
  % Inhibition: 16%
Lipoxygenase 15-LO
  inhibition at 10 µM: 14%
Glutamate, Kainate
  % Inhibition: 11%
Adrenergic α 2A
  inhibition at 10 µM: -8%

Source: article PMC3119665, “A New Drug Design Targeting the Adenosinergic System for Huntington's Disease” (PLoS ONE, 2011)
